Source: the Deep4Chem optical property database
“And” between values parts separate entries of the source, which are not always exact repeats. Equal entries are not always repeated. One block for each molecule: values may come before it.

Test: photoluminescence quantum yield (fraction); solvent given as SMILES

SMILES: Cc1cnc(NC(=O)C2=C(O)c3ccccc3S(=O)(=O)N2C)s1
photoluminescence quantum yield (in C1COCCO1): 0.0133
photoluminescence quantum yield (in CC#N): 0.0147
photoluminescence quantum yield (in CCCCO): 0.0231
photoluminescence quantum yield (in CCCO): 0.0164
photoluminescence quantum yield (in CCO): 0.0106
photoluminescence quantum yield (in CCOC(C)=O): 0.0113
photoluminescence quantum yield (in CO): 0.00754

SMILES: C(#Cc1ccc2ccc3cccc4ccc1c2c34)c1ccccc1
photoluminescence quantum yield (in Cc1ccccc1): 0.61

SMILES: CCCCn1c(-c2ccc(-c3ccc(-c4ccc(-c5n(CCCC)c6ccccc6[n+]5CCCC)cc4)cc3)cc2)[n+](CCCC)c2ccccc21
photoluminescence quantum yield (in O): 0.77

SMILES: N#Cc1cc(C#N)cc(-n2c3ccccc3c3cc(-c4ccc5c(c4)c4ccccc4n5-c4cc(C#N)cc(C#N)c4)ccc32)c1
photoluminescence quantum yield (in Cc1ccccc1): 0.5
photoluminescence quantum yield (in O=P(c1ccccc1)(c1ccccc1)c1ccccc1Oc1ccccc1P(=O)(c1ccccc1)c1ccccc1): 0.58

SMILES: CN(C)c1ccc(-c2nc3c(c4c2-c2ccccc2CC4)-c2ccccc2CC3)cc1
photoluminescence quantum yield (in C1CCOC1): 0.396
photoluminescence quantum yield (in CC#N): 0.182
photoluminescence quantum yield (in CCCCCC): 0.05
photoluminescence quantum yield (in CCOC(C)=O): 0.164
photoluminescence quantum yield (in CO): 0.08
photoluminescence quantum yield (in CS(C)=O): 0.215
photoluminescence quantum yield (in Cc1ccccc1): 0.112
photoluminescence quantum yield (in ClCCl): 0.269

SMILES: COCCOCCOc1cc(C=O)c(OCCOCCOC)cc1C=O
photoluminescence quantum yield (in CC(C)(C)O): 0.12
photoluminescence quantum yield (in CC(C)CO): 0.09
photoluminescence quantum yield (in CC(C)O): 0.08
photoluminescence quantum yield (in CCCCO): 0.14
photoluminescence quantum yield (in CCCO): 0.15
photoluminescence quantum yield (in CCO): 0.15
photoluminescence quantum yield (in CN(C)C=O): 0.05
photoluminescence quantum yield (in CNC=O): 0.03
photoluminescence quantum yield (in CO): 0.22
photoluminescence quantum yield (in NC=O): 0.26
photoluminescence quantum yield (in O): 0.55

SMILES: CC(C)(C)c1ccc2c(c1)sc1[n+]2[B-](F)(F)n2c(c3cccc4cccc2c43)=C1C#N
photoluminescence quantum yield (in C1CCOC1): 0.67
photoluminescence quantum yield (in CC#N): 0.74
photoluminescence quantum yield (in CCCCCC): 0.68
photoluminescence quantum yield (in Cc1ccccc1): 0.69
photoluminescence quantum yield (in ClCCl): 0.7

SMILES: CCOC(=O)c1cc(C(=O)OCC)c2cc(NC(=O)C(F)(F)F)ccc2n1
photoluminescence quantum yield (in CCO): 0.34

SMILES: C[Si]1(C)c2ccc(-c3ccc(N(c4ccccc4)c4ccccc4)cc3)cc2C=Cc2cc(-c3ccc(N(c4ccccc4)c4ccccc4)cc3)ccc21
photoluminescence quantum yield (in ClCCl): 0.43

SMILES: CC(C)(C)c1ccc(Oc2cc3c4c(cc(Oc5ccc(C(C)(C)C)cc5)c5c6c(Oc7ccc(C(C)(C)C)cc7)cc7c8c(cc(Oc9ccc(C(C)(C)C)cc9)c(c2c45)c86)C(=O)N(c2ccccc2)C7=O)C(=O)N(c2ccccc2)C3=O)cc1
photoluminescence quantum yield (in ClC(Cl)Cl): 0.86

SMILES: CCC(=O)c1ccc2cc(N(C)C)ccc2c1
photoluminescence quantum yield (in C1CCOC1): 0.83
photoluminescence quantum yield (in C1COCCO1): 0.61
photoluminescence quantum yield (in CC#N): 0.94
photoluminescence quantum yield (in CCCCCC): 0.02
photoluminescence quantum yield (in CCCCCCC): 0.019
photoluminescence quantum yield (in CCCCCCCCO): 0.385
photoluminescence quantum yield (in CCO): 0.95
photoluminescence quantum yield (in CN(C)C=O): 0.92
photoluminescence quantum yield (in CO): 0.71
photoluminescence quantum yield (in CS(C)=O): 0.75
photoluminescence quantum yield (in Cc1ccccc1): 0.52
photoluminescence quantum yield (in ClC(Cl)Cl): 0.88
photoluminescence quantum yield (in ClCCl): 0.94

SMILES: c1cc2c3c(cccc3c1)C(N1CCOCCNCCOCCOCC1)=N2
photoluminescence quantum yield (in CC#N): 0.0046

SMILES: N#Cc1c(-n2c3ccccc3c3ccccc32)c(-n2c3ccccc3c3ccccc32)c(C#N)c(-n2c3ccccc3c3ccccc32)c1-n1c2ccccc2c2ccccc21
photoluminescence quantum yield (in Cc1ccccc1): 0.716 and 0.72

SMILES: CC(=O)O[B-]1(OC(C)=O)OC(/C=C/c2cccc3ccccc23)=CC(/C=C/c2cccc3ccccc23)=[O+]1
photoluminescence quantum yield (in C1CCOC1): 0.75
photoluminescence quantum yield (in CC#N): 0.43
photoluminescence quantum yield (in CC(C)=O): 0.58
photoluminescence quantum yield (in CS(C)=O): 0.38
photoluminescence quantum yield (in Cc1ccccc1): 0.84
photoluminescence quantum yield (in ClC(Cl)Cl): 0.73
photoluminescence quantum yield (in ClCCl): 0.64

SMILES: COc1ccc(O)c(C=O)c1
photoluminescence quantum yield (in CO): 0.03

SMILES: Cc1ccc(-c2ccc(/C=C/c3ccc(Br)n3C)cn2)nc1
photoluminescence quantum yield (in CC#N): 0.13

SMILES: CCN1C(=CC=Cc2n(CC)c3cc(Cl)c(Cl)cc3[n+]2CC)N(CC)c2cc(Cl)c(Cl)cc21
photoluminescence quantum yield (in CC#N): 0.024
photoluminescence quantum yield (in CCCCCCO): 0.058
photoluminescence quantum yield (in CCCCO): 0.042
photoluminescence quantum yield (in CCCO): 0.033
photoluminescence quantum yield (in CCO): 0.023
photoluminescence quantum yield (in CO): 0.016
photoluminescence quantum yield (in CS(C)=O): 0.055
photoluminescence quantum yield (in OCC(O)CO): 0.36
photoluminescence quantum yield (in OCCO): 0.075

SMILES: CN1/C(=C/C=C/C2=[N+](CCCCCC(=O)O)c3ccc(S(=O)(=O)[O-])cc3C2(C)C)C(C)(C)c2cc(S(=O)(=O)[O-])ccc21
photoluminescence quantum yield (in O): 0.04

SMILES: COC(=O)c1[nH]c(-c2ccccc2)c2nnc3ccsc3c12
photoluminescence quantum yield (in ClCCl): 0.111

SMILES: CC(C)(C)c1ccc(-c2cc3c(-c4ccc(C(C)(C)C)cc4)c4cccc5c(-c6ccc(C(C)(C)C)cc6)cc6c(-c7ccc(C(C)(C)C)cc7)c7cccc2c7c3c6c54)cc1
photoluminescence quantum yield (in C1CCCCC1): 0.23
photoluminescence quantum yield (in CC#N): 0.2
photoluminescence quantum yield (in CO): 0.21
photoluminescence quantum yield (in Cc1ccccc1): 0.41
photoluminescence quantum yield (in ClCCl): 0.27

SMILES: CCCCN1C(=O)c2cc(Br)c3c4c(Br)cc5c6c(cc(Br)c(c7c(Br)cc(c2c37)C1=O)c64)C(=O)N(CCCC)C5=O
photoluminescence quantum yield (in ClC(Cl)Cl): 0.31

SMILES: CCN(CC)c1ccc(-n2cccc2)cc1
photoluminescence quantum yield (in CC#N): 0.13
photoluminescence quantum yield (in CCCCCC): 0.11

SMILES: Nc1cccnc1
photoluminescence quantum yield (in C1CCCCC1): 0.02
photoluminescence quantum yield (in CC#N): 0.05
photoluminescence quantum yield (in CCO): 0.14
photoluminescence quantum yield (in CCOCC): 0.03
photoluminescence quantum yield (in O): 0.16

SMILES: CCCCCCc1cc2c3c(c1)c(=C1c4ccccc4Sc4ccccc41)c1cc(CCCCCC)cc4c1N3c1c(cc(CCCCCC)cc1c4=C1c3ccccc3Sc3ccccc31)c2=C1c2ccccc2Sc2ccccc21
photoluminescence quantum yield (in ClCCl): 0.57

SMILES: Cc1cc(-c2ccc(C(C)(C)C)cc2)c2nsnc2c1-c1ccc(N(c2ccccc2)c2ccccc2)cc1
photoluminescence quantum yield (in ClCCl): 0.18

SMILES: CC(C)(C)c1cc2c(c(C(C)(C)C)c1)O[B-](F)(F)[n+]1c-2nc(-c2ccccc2)c2cc(Cl)ccc21
photoluminescence quantum yield (in Cc1ccccc1): 0.001

SMILES: F[B-]1(F)n2c(-c3ccccc3)cnc2-c2cccc[n+]21
photoluminescence quantum yield (in C1CCCCC1): 0.33
photoluminescence quantum yield (in C1CCOC1): 0.22
photoluminescence quantum yield (in C1COCCO1): 0.24
photoluminescence quantum yield (in CC#N): 0.21
photoluminescence quantum yield (in CCCCCC): 0.32
photoluminescence quantum yield (in CO): 0.17
photoluminescence quantum yield (in ClC(Cl)Cl): 0.24

SMILES: CCCCC(CC)CN1C(=O)c2cc(Oc3ccc(OC)cc3)c3c4c(Oc5ccc(C(C)(C)C)cc5)cc5c6c(cc(Oc7ccc(C(C)(C)C)cc7)c(c7c(Oc8ccc(OC)cc8)cc(c2c37)C1=O)c64)C(=O)N(c1c(C(C)C)cccc1C(C)C)C5=O (centres undefined)
photoluminescence quantum yield (in Cc1ccccc1): 0.58

Next, values leading:

photoluminescence quantum yield (in CC#N): 0.14
SMILES: COC(=O)c1c(NC(C)(C)C)oc(-c2ccc(-c3ccccc3)cc2)c1C(=O)OC

photoluminescence quantum yield (in ClCCl): 0.145
SMILES: COc1ccc(C#CC2=C3CCc4ccccc4C3=[O+][B-](F)(F)O2)cc1

photoluminescence quantum yield (in ClCCl): 0.05
SMILES: CC(C)(C)NC(=O)c1cccc2ccc3c4ccc(F)cc4c4cc(F)ccc4c3c12

photoluminescence quantum yield (in ClCCl): 0.16
SMILES: CCCCCCN1C(=O)c2cccc3c(-c4ccc(-c5cc(-c6cccc7ccccc67)nn5-c5ccccc5)s4)ccc(c23)C1=O

photoluminescence quantum yield (in CCO): 0.87
SMILES: CC(C)(C)OC(=O)NCCCC(=O)OCc1ccc2c3cccc4cccc(c5cccc1c52)c43

photoluminescence quantum yield (in C1CCCCC1): 0.95
SMILES: c1cc2c3c(c1)OCCCCCCCCOc1cccc(c1-c1c4ccccc4c-3c3ccccc13)OCCCCCCCCO2

photoluminescence quantum yield (in C1CCOC1): 0.459
SMILES: COc1cc2oc(=O)c3c4ccc(C=O)cc4c4ccc5cccc6c(c1)c2c3c4c56

photoluminescence quantum yield (in CN(C)C=O): 0.392
SMILES: Cc1nc2cccc(-c3nc4ccccc4o3)c2c(=O)[nH]1

photoluminescence quantum yield (in ClC(Cl)Cl): 0.5
SMILES: C[N+]1=c2ccc3c(c2C(C)(C)CC1)Oc1cc2c(cc1C=3c1ccccc1C(=O)O)C(c1ccccc1C(=O)O)=c1ccc3c(c1O2)C(C)(C)CC[N+]=3C

photoluminescence quantum yield (in CC#N): 0.22
photoluminescence quantum yield (in CCO): 0.34
photoluminescence quantum yield (in CO): 0.33
photoluminescence quantum yield (in ClC(Cl)Cl): 0.48
SMILES: CCNc1cc2c(cc1C)C(c1ccccc1C(=O)O)=C1CCCC(/C=C/C3=[N+](C)c4ccc5ccccc5c4C3(C)C)=C1O2

photoluminescence quantum yield (in CCO): 0.29
SMILES: O=Cc1ccc(-c2ccc(C3=CCC(c4ccccc4)CC3)s2)s1 (centres undefined)

photoluminescence quantum yield (in CC1CCCCC1): 0.51
photoluminescence quantum yield (in CC#N): 0.35
photoluminescence quantum yield (in CO): 0.37
SMILES: COC(=O)C(NC(=O)OC(C)(C)C)c1ccc2oc(-c3cc(OC)ccc3OC)nc2c1 (centres undefined)

photoluminescence quantum yield (in ClC(Cl)Cl): 0.22
SMILES: CCCCCCN1C(=O)c2cccc3c(-c4sc(-c5ccc6c7c(cccc57)C(=O)N(CCCCCC)C6=O)c5c4OCCO5)ccc(c23)C1=O

photoluminescence quantum yield (in ClCCl): 0.91
SMILES: COc1ccc(/C=C/c2nc(/C=C/c3ccc(N(c4ccccc4)c4ccccc4)cc3)cc(/C=C/c3ccc(N(c4ccccc4)c4ccccc4)cc3)n2)cc1

photoluminescence quantum yield (in CC#N): 0.14
photoluminescence quantum yield (in CCCCOCCCC): 0.19
photoluminescence quantum yield (in CO): 0.17
SMILES: Nc1cc2ccc3cccc4ccc(c1)c2c34

photoluminescence quantum yield (in CO): 0.2
SMILES: COc1ccc(-c2nc(-c3ccc(OC)cc3)c(-c3ccc(OC)cc3)[nH]2)cc1

photoluminescence quantum yield (in CC#N): 0.56
photoluminescence quantum yield (in CO): 0.3
photoluminescence quantum yield (in ClCCl): 0.61
SMILES: Cc1cc(O)c(-c2[nH]c(=O)n3c2-c2ccccc2C3=O)cc1Cl

photoluminescence quantum yield (in C1CCCCC1): 0.22
photoluminescence quantum yield (in CC#N): 0.08
SMILES: C[Si](C)(C)[Si](C)(C)c1ccc2cc3ccccc3cc2c1

photoluminescence quantum yield (in ClCCl): 0.64
SMILES: Cc1cc(-c2ccc3ccccc3c2)cc(C)[o+]1

photoluminescence quantum yield (in ClCCl): 0.4
SMILES: c1ccc(C2(c3ccccc3)c3ccc4ccc5ccccc5c4c3-c3c2ccc2ccc4ccccc4c32)cc1

photoluminescence quantum yield (in CC#N): 0.4
photoluminescence quantum yield (in CCO): 0.66
photoluminescence quantum yield (in CN(C)C=O): 0.42
photoluminescence quantum yield (in CO): 0.7
photoluminescence quantum yield (in O): 0.36 and 0.31
SMILES: CCN(CC)c1ccc2c(-c3ccccc3C(=O)[O-])c3ccc(=[N+](CC)CC)cc-3oc2c1

photoluminescence quantum yield (in C1CCCCC1): 0.86
SMILES: CCCC1(CCC)c2cc(-c3ccco3)ccc2-c2ccc(-c3ccco3)cc21

photoluminescence quantum yield (in C1CCOC1): 0.46
SMILES: F[Si-](F)(c1ccccc1)(c1c2ccccc2cc2ccccc12)c1c2ccccc2cc2ccccc12
